{"source": "patent US20130012709A1", "about": "“NOVEL INHIBITORS OF STEAROYL-CoA-DESATURASE-1 AND THEIR USES” (CENTRE NATIONAL DE LA RECHERCHE SCIENTIFIQUE, priority 2009, published 2013)", "key": {"C4-2 cells [1]": {"tested_on": "C4-2 cells", "experiment": "Flow cytometry analysis of cell cycle", "assay_type": "cell-based, human", "details": "CaP cells (C4-2); with a decrease in the S phase", "protocol": "(§1) Cells were then rinsed in PBS, pelleted at 400 g for 5 min and maintained on ice for 20 min before resuspension in a […] propidium iodide (Sigma) solution. Cells were kept overnight at 4° C. and the percentages of cells in G1, S and G2-M phases of the cell cycle were measured with a Coulter Epics XL™ flow cytometer (Becton Dickinson) using 488-nm laser excitation. For apoptosis experiment, MEFs were treated with the tested compound at 25 μM for 24 h, then rinced in PBS, pelleted at 400 g for 5 min and stained with annexinV-FITC (Roche Diagnostics, Meylan, France) for 15 min at 4° C. The percentage of annexin positive cells was immediately analysed using 488-nm laser excitation."}, "LNCaP cells [2]": {"tested_on": "LNCaP cells", "experiment": "Flow cytometry analysis of cell cycle", "assay_type": "cell-based, human", "details": "CaP cells (LNCaP); with a decrease in the S phase", "protocol": "as §1"}, "SCD-1": {"molecular_target": "T1, SCD-1 (Homo sapiens, UniProt O00767)", "T1 construct": "endogenous in cells; host or cells: LNCaP, C4-2, PNT2 cells", "T1 sequence (O00767 1-359)": "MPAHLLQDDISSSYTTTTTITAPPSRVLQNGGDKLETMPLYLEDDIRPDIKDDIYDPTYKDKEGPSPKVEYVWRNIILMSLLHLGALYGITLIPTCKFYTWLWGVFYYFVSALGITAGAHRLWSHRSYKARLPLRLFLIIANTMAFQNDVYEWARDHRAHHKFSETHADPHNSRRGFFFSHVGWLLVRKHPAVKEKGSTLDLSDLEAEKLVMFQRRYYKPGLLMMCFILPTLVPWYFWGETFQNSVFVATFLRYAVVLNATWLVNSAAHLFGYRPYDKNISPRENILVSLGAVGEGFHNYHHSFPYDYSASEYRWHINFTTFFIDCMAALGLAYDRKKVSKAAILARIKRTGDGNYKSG", "experiment": "Determination of SCD activity, [14C] palmitic to palmitoleic acid conversion in cells", "assay_type": "cell-based", "details": "all three cell lines (LNCaP, C4-2, PNT2), 25 μM", "protocol": "Subconfluent LNCaP, C4-2, PNT2 of Ras SV40 MEFs cells grown in 6-wells plate were incubated with the tested inhibitor at 25 μM for 2 h in serum and fatty acid-free DMEM media supplemented 0.2% BSA. In this environment, the cells are solely dependent on endogenous fatty acid synthesis for production of storage, structural and signaling lipids. Trace amount of [^14C] palmitic acid were then added to the culture (0.5 μCi/well), and cells were incubated for 6 more hours. At the end of the incubation, total cell lipids were extracted and saponified, then released fatty acids were esterified with boron trifluoride in methanol for 90 min at 100° C. […] Air-dried plates were scanned on a Phosphorlmager and fatty acid spots on TLC were analysed with Phosphorlmager software. SCD activity was expressed as the ratio of palmitoleic on palmitic methyl ester acids and normalized to cellular DNA content.\nThe efficacy of the tested compound to inhibit SCD-1 activity has been evaluated by measuring the conversion of exogenous [^14C] saturated palmitic acid (16:0) to monounsaturated palmitoleic acid (16:1n-7). Moreover, the effects of inhibition of SCD-1 activity on lipid synthesis and proliferation in prostate cancer cell lines were analysed."}, "SCDs": {"tested_on": "SCDs", "experiment": "Determination of SCD activity in transformed MEFs", "assay_type": "cell-based, mouse", "details": "25 μM", "protocol": "Subconfluent LNCaP, C4-2, PNT2 of Ras SV40 MEFs cells grown in 6-wells plate were incubated with the tested inhibitor at 25 μM for 2 h in serum and fatty acid-free DMEM media supplemented 0.2% BSA. In this environment, the cells are solely dependent on endogenous fatty acid synthesis for production of storage, structural and signaling lipids. Trace amount of [^14C] palmitic acid were then added to the culture (0.5 μCi/well), and cells were incubated for 6 more hours. At the end of the incubation, total cell lipids were extracted and saponified, then released fatty acids were esterified with boron trifluoride in methanol for 90 min at 100° C. The derived methyl esters were separated by argentation TLC (Thermo Fisher Scientific) following the procedure of Wilson and Sargen, using a solvent phase consisting of hexane:ethyl ether (90:10, by vol) (35). Pure stearic and oleic methyl ester acids were run in parallel to the samples. Air-dried plates were scanned on a Phosphorlmager and fatty acid spots on TLC were analysed with Phosphorlmager software. SCD activity was expressed as the ratio of palmitoleic on palmitic methyl ester acids and normalized to cellular DNA content."}, "C4-2 cells [3]": {"tested_on": "C4-2 cells", "experiment": "Proliferation assay (cell counting)", "assay_type": "cell-based, human", "details": "C4-2, maximal dose used", "protocol": "(§2) At 24 h, 48 h, 72 h and 96 h following addition of increasing concentrations of the tested compound in DMSO or DMSO alone, cells were trypsinized, pelleted by centrifugation at 1200 rpm for 5 min, resuspended in 500 μl of culture medium and counted in an hemocytometer."}, "PNT2 cells": {"tested_on": "PNT2 cells", "experiment": "Proliferation assay (cell counting)", "assay_type": "cell-based, human", "details": "non-cancerous PNT2, even at a maximal dose", "protocol": "as §2"}, "C4-2 cells [4]": {"tested_on": "C4-2 cells", "experiment": "PI(3,4,5)P3 mass ELISA", "assay_type": "cell-based, human", "details": "C4-2, 25 μM, 24 h, vs non-treated cells", "protocol": "(§3) The production of PI(3,4,5)P3 (PIP3) in LNCaP and C4-2 prostate cancer cells was measured 24 h following exposure to control medium or to medium supplemented with the inhibitor tested at 25 μM. The levels of produced PIP3 were quantified after cellular lipids extraction using a PI(3,4,5)P3 mass ELISA kit according to the manufacturer's instruction."}, "LNCaP cells [5]": {"tested_on": "LNCaP cells", "experiment": "PI(3,4,5)P3 mass ELISA", "assay_type": "cell-based, human", "details": "25 μM, 24 h, vs non-treated cells", "protocol": "as §3"}, "[6]": {"tested_on": "β-catenin-Tcf4 complex in C4-2 cells", "experiment": "TCF/LEF-1 reporter (pTOP-FLASH) luciferase assay", "assay_type": "cell-based, human", "protocol": "(§4) The transcriptional activity of the β-catenin-Tcf4 complex was analysed by performing transient transfections with 0.25 μg TCF/LEF-1 reporter (pTOP-FLASH) or control vector (pFOP-FLASH).\n(§5) Luciferase activities in cell lysates were normalized relative to the β-galactosidase activity to correct for differences in transfection efficiency."}, "[7]": {"tested_on": "β-catenin-Tcf4 complex in LNCaP cells", "experiment": "TCF/LEF-1 reporter (pTOP-FLASH) luciferase assay", "assay_type": "cell-based, human", "protocol": "as §4, §5"}, "C4-2 cells [8]": {"tested_on": "C4-2 cells", "experiment": "Human WNT Signaling Pathway PCR Array", "assay_type": "cell-based", "details": "C4-2, 25 μM", "protocol": "C4-2 cells treated with the compound tested at 25 μM were analysed for the expression profiles of 84 genes related to Wnt-mediated signal transduction by using Human WNT Signaling Pathway PCR Array according to the manufacturers' recommendations (Tebu-Bio, Le Perray en Yvelines, France). The relative content of cDNA samples was normalized with the endogenous β2M, HPRT1, RPL13 and GAPDH reference genes, and the relative mRNA level was calculated according to the formula 2^−(ΔCt). Values are expressed as the fold change in relative mRNA level following treatment of cells with the tested compound at 25 μM, as compared to control."}, "[9]": {"tested_on": "MEFs transformed by HaRasV12 and SV40 Large T", "experiment": "Proliferation of MEFs", "assay_type": "cell-based, mouse", "protocol": "(§6) Primary MEFs were obtained from embryos at embryonic day 13.5 by standard methods.\n(§7) Monolayer cell cultures were grown in Dulbecco's Modified Eagle's Medium (DMEM) supplemented with 25 mM glucose and 10% FCS.\nas §2"}, "normal MEFs (WT)": {"tested_on": "normal MEFs (WT)", "experiment": "Proliferation of MEFs", "assay_type": "cell-based, mouse", "details": "slowly growing normal MEFs (WT)", "protocol": "as §6, §7, §2"}, "[10]": {"tested_on": "p53−/− MEFs transformed by HaRasV12", "experiment": "Proliferation of MEFs", "assay_type": "cell-based, mouse", "details": "p53−/− MEFs fully transformed by HaRasV12", "protocol": "as §6, §7, §2"}}}
{"molecule": "COc1ccc(Br)c(C(=O)N2CCN(c3ccc(C(=O)NCCCc4ccccc4)cn3)CC2)c1", "note": "[BZ36]", "values": [{"measurement": "cell cycle distribution", "setting": "C4-2 cells [1]", "value": "accumulation of cells in the G0/G1 phase"}, {"measurement": "cell cycle distribution", "setting": "LNCaP cells [2]", "value": "accumulation of cells in the G0/G1 phase"}, {"measurement": "labelled monounsaturated palmitoleic acid vs control cells", "setting": "SCD-1", "value": "marked reduction"}, {"measurement": "[14C]-palmitoleic to palmitic methyl ester acids ratio", "setting": "SCDs", "value": "decreased lipogenesis"}, {"measurement": "inhibition of cell proliferation", "setting": "C4-2 cells [3]", "value": 100, "unit": "%"}, {"measurement": "effect in proliferation", "setting": "PNT2 cells", "value": "no effect"}, {"measurement": "decrease of PI(3,4,5)P3 concentration", "setting": "C4-2 cells [4]", "value": 92, "unit": "%"}, {"measurement": "decrease of PI(3,4,5)P3 concentration", "setting": "LNCaP cells [5]", "value": 84, "unit": "%"}, {"measurement": "activity of a β-cat reporter", "setting": "[6]", "value": "decreased activity"}, {"measurement": "activity of a β-cat reporter", "setting": "[7]", "value": "decreased activity"}, {"measurement": "expression of genes in the β-cat pathway (frizzled family, cyclin D1, D2, D3, myc, c-jun, Wnt family members)", "setting": "C4-2 cells [8]", "value": "decreased expression"}, {"measurement": "proliferation index", "setting": "[9]", "value": "strongly decreased"}, {"measurement": "proliferation index", "setting": "normal MEFs (WT)", "value": "only moderately reduced"}, {"measurement": "proliferation", "setting": "[10]", "value": "efficiently blocked"}]}
